Like-named read-outs stand apart in the source and are kept apart here.
How the values were obtained:
pAKT in BT474 cells = assay: Cell-based pAKT HTRF assay in BT474 cells; settings: BT474 cells, 4 hr incubation, Compounds 1000-1279, read-out: pAKT inhibition IC50 in BT474 cells
Procedure, shortened: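 Treatment lasts 4 hr in DMEM/10% FBS at 0.25% DMSO over nine 3-fold dilutions from 3 μM. The lysate is then probed by HTRF.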

[1] = target: Cys242 in human PIK3CA (157-299) (Homo sapiens (Human), UniProt P42336); assay: Covalent modification assay using MALDI-TOF MS; format: biochemical; settings: 4 h reaction time point; 1 μM protein target, 1:5 protein to compound ratio (compounds 853-1279)
Procedure, shortened: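 PIK3CA (157-299), 3.33 or 1 μM in 20 mM HEPES, 150 mM NaCl, 2 mM MgCl2, pH 7.3, was incubated with compound at room temperature in the dark for 15 min, 30 min, 2 h or 4 h. Linear MALDI-TOF read-out; % modification = adduct peak height over summed heights of all protein species.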

Chain of Cys242 in human PIK3CA (157-299) (P42336 157-299): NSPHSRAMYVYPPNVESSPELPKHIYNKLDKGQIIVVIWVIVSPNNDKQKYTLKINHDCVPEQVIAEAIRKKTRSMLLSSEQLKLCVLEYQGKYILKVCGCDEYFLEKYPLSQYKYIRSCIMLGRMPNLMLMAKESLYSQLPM

IC50 (pAKT in BT474 cells; Homo sapiens, BT-474)	IC50 (pAKT in BT474 cells)	Compound	% of modification [1]
100 to 1000 nM		C=CC(=O)N1Cc2cc(-c3nc(C45CC(CN(C)C)(C4)C5)c4ccsc4c3-c3c(F)cc(F)cc3OCCOC)nn2C[C@H]1C [Compound 1168, 1-((6R)-2-(7-(2,4-difluoro-6-(2-methoxyethoxy)phenyl)-4-(3-((dimethylamino)methyl)bicyclo[1.1.1]pentan-1-yl)thieno[3,2-c]pyridin-6-yl)-6-methyl-6,7-dihydropyrazolo[1,5-a]pyrazin-5(4H)-yl)prop-2-en-1-one]	B (50%<percent of modification <75%)
	< 100 nM	C=CC(=O)N1CCn2nc(-c3nc(-c4ccc5c(c4)CCN(C)C5(C)C)c4ccsc4c3-c3c(F)cc(F)cc3OCCO)cc2C1C (stereo not shown) [Compound 1181]	A (percent of modification of PIK3CA protein ≥75%)
	< 100 nM	C=CC(=O)N1CCn2nc(-c3nc(-c4ccc5c(c4)CCC5N(C)C)c4ccsc4c3-c3c(F)cc(F)cc3OCCOC)cc2C1C (stereo not shown) [Compound 1182]	A (percent of modification of PIK3CA protein ≥75%)
	< 100 nM	C=CC(=O)N1CCn2nc(-c3nc(-c4ccc(C(=O)NCC(F)F)cc4)c4ccsc4c3-c3c(F)cc(F)cc3OCCOC)cc2C1C (stereo not shown) [Compound 1183]	A (percent of modification of PIK3CA protein ≥75%)
	100 to 1000 nM	C=CC(=O)N1CCc2ccc(-c3nc(-c4cccc(OCCN(C)C)c4)c4ccsc4c3-c3c(F)cc(F)cc3OCCOC)cc2C1 [Compound 1184]	A (percent of modification of PIK3CA protein ≥75%)
	< 100 nM	C=CC(=O)N1CCn2nc(-c3nc(-c4ccc(CC(=O)NC)cc4)c4ccsc4c3-c3c(F)cc(F)cc3OC)cc2C1C (stereo not shown) [Compound 1188]	A (percent of modification of PIK3CA protein ≥75%)
	< 100 nM	C=CC(=O)N1CCn2nc(-c3nc(-c4ccc(C(=O)N5CC(F)C(F)C5)cc4)c4ccsc4c3-c3c(F)cc(F)cc3OCCOC)cc2C1C (stereo not shown) [Compound 1189]	A (percent of modification of PIK3CA protein ≥75%)
	100 to 1000 nM	C=CC(=O)N1CCn2nc(-c3nc(-c4ccc(C(=O)NCC5CN(C)C5)cc4)c4ccsc4c3-c3c(F)cc(F)cc3OCCOC)cc2C1C (stereo not shown) [Compound 1190]	A (percent of modification of PIK3CA protein ≥75%)
	< 100 nM	C=CC(=O)N1CCc2ccc(-c3nc(-c4ccc5c(c4)CNC(=O)C54CC4)c4ccsc4c3-c3c(F)cc(F)cc3OCCOC)cc2C1 [Compound 1191]	A (percent of modification of PIK3CA protein ≥75%)
	< 100 nM	C=CC(=O)N1CCc2ncc(-c3nc(-c4ccc5c(c4)CNC(=O)C54CC4)c4ccsc4c3-c3c(F)cc(F)cc3OCCOC)cc2C1 [Compound 1192]	A (percent of modification of PIK3CA protein ≥75%)
	< 100 nM	C=CC(=O)N1CCn2nc(-c3nc(-c4ccc5c(c4)C4(CC4)CN(C)C5)c4ccsc4c3-c3c(F)cc(F)cc3OCCOC)cc2C1C (stereo not shown) [Compound 1193]	A (percent of modification of PIK3CA protein ≥75%)
	< 100 nM	C=CC(=O)N1CCn2nc(-c3nc(-c4cccc(OCCN(C)C)c4)c4ccsc4c3-c3c(F)cc(F)cc3OCCO)cc2C1C (stereo not shown) [Compound 1194]	A (percent of modification of PIK3CA protein ≥75%)
	< 100 nM	C=CC(=O)N1CCn2nc(-c3nc(-c4ccc5c(c4)NC(=O)CN(C)C5)c4ccsc4c3-c3c(F)cc(F)cc3OCCO)cc2C1C (stereo not shown) [Compound 1195]	A (percent of modification of PIK3CA protein ≥75%)
	< 100 nM	C=CC(=O)N1CCn2nc(-c3nc(-c4cnc5c(c4)CN(C)CC5(F)F)c4ccsc4c3-c3c(F)cc(F)cc3OCCO)cc2C1C (stereo not shown) [Compound 1196]	A (percent of modification of PIK3CA protein ≥75%)
	< 100 nM	C=CC(=O)N1CCn2nc(-c3nc(-c4ccc5c(c4)C4(CC4)CN(C)C5)c4ccsc4c3-c3c(F)cc(F)cc3OCCO)cc2C1C (stereo not shown) [Compound 1197]	A (percent of modification of PIK3CA protein ≥75%)
	< 100 nM	C=CC(=O)N1CCn2nc(-c3nc(-c4ccc(OC5CN(C)C5)cc4)c4ccsc4c3-c3c(F)cc(F)cc3OCCO)cc2C1C (stereo not shown) [Compound 1198]	A (percent of modification of PIK3CA protein ≥75%)
	< 100 nM	C=CC(=O)N1CCn2nc(-c3nc(-c4ccnc(OCCN(C)C)c4)c4ccsc4c3-c3c(F)cc(F)cc3OCCOC)cc2C1C (stereo not shown) [Compound 1199]	A (percent of modification of PIK3CA protein ≥75%)

IC50 (pAKT in BT474 cells; Homo sapiens, BT-474)	IC50 (pAKT in BT474 cells)	Compound	% of modification [1]
	< 100 nM	C=CC(=O)N1CCc2cc(-c3nc(-c4ccc5nn(C)cc5c4)c4ccsc4c3-c3c(F)cc(F)cc3OCCO)nn2CC1 [Compound 1200]	A (percent of modification of PIK3CA protein ≥75%)
	< 100 nM	C=CC(=O)N1CCn2nc(-c3nc(-c4ccc(OCC5CN(C)C5)nc4)c4ccsc4c3-c3c(F)cc(F)cc3OCCOC)cc2C1C (stereo not shown) [Compound 1201]	A (percent of modification of PIK3CA protein ≥75%)
	< 100 nM	C=CC(=O)N1CCc2cc(-c3nc(-c4ccc5c(c4)CCNC5=O)c4ccsc4c3-c3c(F)cc(F)cc3OCCO)nn2CC1 [Compound 1202]	A (percent of modification of PIK3CA protein ≥75%)
	< 100 nM	C=CC(=O)N1CCn2nc(-c3nc(-c4cncc(OC5CN(C)C5)c4)c4ccsc4c3-c3c(F)cc(F)cc3OCCOC)cc2C1C (stereo not shown) [Compound 1203]	A (percent of modification of PIK3CA protein ≥75%)
	< 100 nM	C=CC(=O)N1CCn2nc(-c3nc(-c4ccc(OC5CN(C)C5)nc4)c4ccsc4c3-c3c(F)cc(F)cc3OCCOC)cc2C1C (stereo not shown) [Compound 1205]	A (percent of modification of PIK3CA protein ≥75%)
	< 100 nM	C=CC(=O)N1CCn2nc(-c3nc(-c4ccc(C(=O)N(C)CCN(C)C)cc4)c4ccsc4c3-c3c(F)cc(F)cc3OCCOC)cc2C1C (stereo not shown) [Compound 1206]	A (percent of modification of PIK3CA protein ≥75%)
< 100 nM		C=CC(=O)N1CCc2cc(-c3nc(-c4ccc5c(cnn5C)c4)c4ccsc4c3-c3c(F)cc(F)cc3OCCO)nn2CC1 [Compound 1207, (S)-1-(2-(7-(2,4-difluoro-6-(2-hydroxyethoxy)phenyl)-4-(1-methyl-1H-indazol-5-yl)thieno[3,2-c]pyridin-6-yl)-4,5,7,8-tetrahydro-6H-pyrazolo[1,5-d][1,4]diazepin-6-yl)prop-2-en-1-one]	A (percent of modification of PIK3CA protein ≥75%)
	< 100 nM	C=CC(=O)N1CCc2cc(-c3nc(-c4ccc5cn(C)nc5c4)c4ccsc4c3-c3c(F)cc(F)cc3OCCO)nn2CC1 [Compound 1210]	A (percent of modification of PIK3CA protein ≥75%)
	< 100 nM	C=CC(=O)N1CCn2nc(-c3nc(-c4ccc5c(c4)CCN(C)CC5)c4c(c3-c3c(F)cc(F)cc3OCCOC)CCC4)cc2[C@H]1C [Compound 1223]	A (percent of modification of PIK3CA protein ≥75%)
	< 100 nM	C=CC(=O)N1CCn2nc(-c3nc(-c4ccc(C5CCCN5C)cc4)c4ccsc4c3-c3c(F)cc(F)cc3OCCOC)cc2C1C (stereo not shown) [Compound 1224]	A (percent of modification of PIK3CA protein ≥75%)
	> 1000 nM	COCCOc1cc(F)cc(F)c1-c1c(-c2cc3n(n2)CCN(C(=O)CCl)[C@@H]3C)nc(-c2ccc3c(cnn3C)c2)c2ccsc12 [Compound 1225]	A (percent of modification of PIK3CA protein ≥75%)
	100 to 1000 nM	C=C(F)C(=O)N1CCn2nc(-c3nc(-c4ccc5c(cnn5C)c4)c4ccsc4c3-c3c(F)cc(F)cc3OCCOC)cc2[C@H]1C [Compound 1226]	D (percent of modification <25%)
	100 to 1000 nM	CC#CC(=O)N1CCn2nc(-c3nc(-c4ccc5c(cnn5C)c4)c4ccsc4c3-c3c(F)cc(F)cc3OCCOC)cc2[C@H]1C [Compound 1227]	B (50%<percent of modification <75%)
	> 1000 nM	COCCOc1cc(F)cc(F)c1-c1c(-c2cc3n(n2)CCN(C(=O)C(F)Cl)[C@@H]3C)nc(-c2ccc3c(cnn3C)c2)c2ccsc12 (stereo partly shown) [Compound 1228]	D (percent of modification <25%)
	> 1000 nM	C#CC(=O)N1CCn2nc(-c3nc(-c4ccc5c(cnn5C)c4)c4ccsc4c3-c3c(F)cc(F)cc3OCCOC)cc2[C@H]1C [Compound 1229]	A (percent of modification of PIK3CA protein ≥75%)
	100 to 1000 nM	C=CC(=O)N1CCn2nc(-c3nc(N4Cc5cn(C)nc5C4)c4ccsc4c3-c3c(F)cc(F)cc3OCCOC)cc2C1C (stereo not shown) [Compound 1230]	A (percent of modification of PIK3CA protein ≥75%)
	< 100 nM	COCCOc1cc(F)cc(F)c1-c1c(-c2cc3n(n2)CCN(C(=O)C=CCN(C)C)C3C)nc(-c2ccc3c(cnn3C)c2)c2ccsc12 (stereo not shown) [Compound 1232]	A (percent of modification of PIK3CA protein ≥75%)

Compound	IC50 (pAKT in BT474 cells; Homo sapiens, BT-474)	IC50 (pAKT in BT474 cells)	% of modification [1]
C=CC(=O)N1CCn2nc(-c3nc(-c4ccc5c(c4)CNC5=O)c4c(c3-c3c(F)cc(F)cc3OCCOC)CCC4)cc2[C@H]1C [Compound 1174, 5-((R)-3-((R)-5-acryloyl-4-methyl-4,5,6,7-tetrahydropyrazolo[1,5-a]pyrazin-2-yl)-4-(2,4-difluoro-6-(2-methoxyethoxy)phenyl)-6,7-dihydro-5H-cyclopenta[c]pyridin-1-yl)isoindolin-1-one]		< 100 nM	A (percent of modification of PIK3CA protein ≥75%)

Source: US20250230138A1, “COMPOUNDS HAVING A T-STRUCTURE FORMED BY AT LEAST FOUR CYCLES FOR USE IN THE TREATMENT OF CANCER AND OTHER INDICATIONS” (TheRas, Inc., priority 2022, published 2025)
